Data on six compounds can be found in patent publication US6605635B1, “N-substituted benzyl or phenyl aromatic sulfamides compounds and the use thereof” (Shanghai Institute of Materia Medica Chinese Academy of …, priority 1999, dated 2003).

In series [1] the test system is acute myocardial ischemia induced arrhythmia. Kind of series: acute myocardial ischemia induced arrhythmia model (coronary artery ligation) in anesthetized rats. The format is in vivo. An excerpt: 1. An acute myocardial ischemia induced arrhythmia model was obtained by conducting chest opening to expose the heart and […] of the anterior descending branch of the coronary artery in anesthetized rats (“Methods in Pharmacological Experiments”, Second Edition, p. 1022, People's Medical Publishing House, Beijing, 1991).

Series [2] deals with beiwutine induced rat arrhythmia. Kind of series: beiwutine induced rat arrhythmia model. The format is in vivo.
Series [3] concerns ouabain induced guinea pig arrhythmia. Put plainly: ouabain induced guinea pig arrhythmia model. The format is in vivo.
The subject of the next series is arrhythmia patients. Conditions: cited from earlier work.
Series [4] concerns rat aconitine-induced arrhythmia. The format is in vivo, rats. Conditions: hydrochloride salts; for Prophylactic inde: ratio LD50:ED50, rats; for Therapeutic ind: ratio LD50:ED, rats.

Turning to `Oc1c(CN2CCCC2)cc(Nc2ncnc3ccccc23)cc1CN1CCCC1` [changrolin], the “inhibition of the incidence of ventrical premature beats” value in series [1] is reported as 50%. It took a dose of 3 mg/kg to reach the 50% effect level in series [2] (ED50). Further, the “amount of ouabain used for inducing ventrical premature beats, ventricular tachycardia and ventricular fibrillation” value in series [3] is given as “significantly increase”. The ventricular premature beats entry in the series on arrhythmia patients (2-3 days after oral administration, patients suffering from arrhythmia) is recorded as “disappear”. In addition, in the series with arrhythmia patients (i.v. injection or instillation, patients), the “ventricular premature beats and ventricular tachycardia” value is “significant reduction or even disappearence”. Also, the skin side effect result in the series on arrhythmia patients (oral administration for over one month, patients, retrogresses after ceasing administration) is listed as “reversible pigmentation on the skin”.
As to “N-[3,5-bis(1-Pyrrolidinomethyl)-4-hydroxy]phenyl-N-ethyl-4-toluenesulfonamide [Compound B-86809]”, in series [4], the Prophylactic inde is recorded as 1.1 and the Therapeutic ind came to 4.0.
In the case of “N-[3,5-bis(1-Pyrrolidinomethyl)-4-hydroxy]phenyl-4-chlorobenzenesulfonamide [Compound B-86810]”, in series [4], the Prophylactic inde worked out at 5.3.
Turning to “N-[3,5-bis(1 -Pyrrolidinomethyl)-4-hydroxyl]benzyl-4-chlorobenzenesulfonamide [Compound B-87829]”, in series [4], the Prophylactic inde amounted to 55 and the Therapeutic ind was 8.6.
`O=S(=O)(Nc1cc(CN2CCCCC2)c(O)c(CN2CCCCC2)c1)c1cccc2ccccc12` [Compound B-87836, N-[3,5-bis(1-Piperidinomethyl)-4-hydroxy]phenyl-1-naphthalenesulfonamide]: in series [4], the Prophylactic inde came to 33.5 and the Therapeutic ind is given as 9.7.
With “N-[3,5-bis(1-Pyrrolidinomethyl)-4-hydroxy]phenyl-N-methyl-4-acetamidobenzenesulfonamide [Compound B-87827]”, in series [4], the Prophylactic inde is listed as 3.0 and the Therapeutic ind turned out to be 2.

For orientation: ED50 means the midpoint of the dose-response relation. High values mean a need for a large dose, low ones an effect at a small dose.
